According to patent publication US10919885B2, “Compounds and uses thereof” (Yumanity Therapeutics, Inc., priority 2018, dated 2021):

Target: human SCD5 (Homo sapiens (Human), UniProt Q86SK9)
Experiment: Yeast growth assay, strain expressing human SCD5 as the sole desaturase (reduced growth as surrogate for SCD inhibition)
Assay type: cell-based
Conditions: yeast with OLE1 deleted expressing human SCD5 from a plasmid; growth read as OD600 after 40 h at 30° C.; top drug concentration 33.3 μM
Outline: (§1)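 Yeast lacking OLE1 depend on plasmid-borne human SCD1 or SCD5 and are tested in SD-Ura medium without oleic/palmitoleic acid or Tween.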

Chain of human SCD5 (Q86SK9 whole entry): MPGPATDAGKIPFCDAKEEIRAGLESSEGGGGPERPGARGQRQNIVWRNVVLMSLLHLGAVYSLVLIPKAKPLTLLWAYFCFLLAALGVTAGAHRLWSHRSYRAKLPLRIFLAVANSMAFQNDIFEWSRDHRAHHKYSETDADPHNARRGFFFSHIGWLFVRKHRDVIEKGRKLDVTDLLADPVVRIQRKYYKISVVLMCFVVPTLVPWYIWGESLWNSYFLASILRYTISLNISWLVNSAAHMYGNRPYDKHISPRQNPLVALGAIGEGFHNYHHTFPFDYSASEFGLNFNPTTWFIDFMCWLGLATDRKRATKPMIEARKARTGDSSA

SMILES	IC50 [µM]
COc1ccc(-c2cc(C(=O)N3CCCC3c3ccc(OC)cc3)no2)cc1 (centres unmarked) [Compound 376]	> 45
COc1ccc(C2CCCN2C(=O)c2cc(-c3ccccc3)on2)cc1 (centres unmarked) [Compound 377]	> 45
COc1ccc(C2CCCN2C(=O)c2cc(-c3ccc(F)c(F)c3)on2)cc1 (centres unmarked) [Compound 378]	> 45
COc1ccc(C2CCCN2C(=O)c2cc(-c3ccc(C(F)(F)F)cc3)on2)cc1 (centres unmarked) [Compound 381]	> 45
COc1ccc(C2CCCN2C(=O)c2cc(-c3ccc(OC)c(F)c3)on2)cc1 (centres unmarked) [Compound 382]	> 45
O=C(c1cc(CC2CC2)on1)N1CCCC1c1ccccc1 (centres unmarked) [Compound 384]	> 45
O=C(c1cc(-c2ccc3c(c2)OCO3)on1)N1CCCC1c1cccnn1 (centres unmarked) [Compound 391]	> 45
COc1ccc(C2CCCN2C(=O)c2cc(-c3ccc(C(F)(F)C(F)(F)F)cc3)on2)cc1 (centres unmarked) [Compound 392]	> 45
N#Cc1ccccc1C1CCCN1C(=O)c1cc(-c2ccc3c(c2)OCO3)on1 (centres unmarked) [Compound 398]	> 45
COc1ccc(C2CCCN2C(=O)c2cc(-c3ccc4nc(N(C)C)oc4c3)on2)cc1 (centres unmarked) [Compound 399]	2.89
COc1ccc(C2CCCN2C(=O)c2cc(-c3ccc4ocnc4c3)on2)cc1 (centres unmarked) [Compound 400]	> 45
COc1ccc(C2CCCN2C(=O)c2cc(-c3ccc4ncoc4c3)on2)cc1 (centres unmarked) [Compound 401]	> 45
N#Cc1ccc(-c2cc(C(=O)N3CCC[C@H]3c3ccccc3)no2)cc1 [Compound 404]	> 45
O=C(c1cc(-c2cccnc2)on1)N1CCC[C@H]1c1ccccc1 [Compound 405]	> 45
O=C(c1cc(-c2ccc3c(c2)OCO3)on1)N1COCC1c1ccccc1 (centres unmarked) [Compound 406]	> 45
O=C(c1cc(-c2ccncc2)on1)N1CCC[C@H]1c1ccccc1 [Compound 409]	> 45
COc1cc(C2CCCN2C(=O)c2cc(-c3ccc4c(c3)OCO4)on2)on1 (centres unmarked) [Compound 411]	> 45

SMILES	IC50 [µM]
O=C(c1cc(-c2ccc3c(c2)OCO3)on1)N1CC(O)C[C@H]1c1ccccc1 (some centres unmarked) [Compound 414]	> 45
Cn1nccc1C1CCCN1C(=O)c1cc(-c2ccc3c(c2)OCO3)on1 (centres unmarked) [Compound 417]	> 45
O=C(c1cc(-c2ccc3c(c2)OCO3)on1)N1CCCC1c1cnccn1 (centres unmarked) [Compound 418]	> 45
O=C(c1cc(-c2ccc3c(c2)OCO3)on1)N1C[C@@H](O)C[C@H]1c1ccccc1 [Compound 421]	> 45
O=C(c1cc(-c2ccc3c(c2)OCO3)on1)N1C[C@H](O)C[C@H]1c1ccccc1 [Compound 422]	> 45
CN1CCC(C2CCCN2C(=O)c2cc(-c3ccc4c(c3)OCO4)on2)CC1 (centres unmarked) [Compound 424]	> 45
Cn1ncc2cccc(C3CCCN3C(=O)c3cc(-c4ccc5c(c4)OCO5)on3)c21 (centres unmarked) [Compound 425]	> 45
Cn1ccc(-c2cc(C(=O)N3CCC[C@H]3c3ccccc3)no2)cc1=O [Compound 428]	> 45
COc1cc(F)ccc1C1CCCN1C(=O)c1cc(-c2ccc3c(c2)OCO3)on1 (centres unmarked) [Compound 430]	30
O=C(c1cc(-c2ccc3c(c2)OCO3)on1)N1CCCC1c1ncccn1 (centres unmarked) [Compound 431]	> 45
O=C(c1cc(-c2ccn3ncnc3c2)on1)N1CCC[C@H]1c1ccccc1 [Compound 432]	> 45
O=C(c1cc(-c2ccnnc2)on1)N1CCC[C@H]1c1ccccc1 [Compound 433]	> 45
O=C(c1cc(-c2ccc3c(c2)OCO3)on1)N1CCCC1Cc1ccccc1 (centres unmarked) [Compound 434]	4.67
O=C(c1cc(-c2ccccc2)on1)N1CCCC1Cc1ccccc1 (centres unmarked) [Compound 436]	8.9
COc1cccnc1C1CCCN1C(=O)c1cc(-c2ccc3c(c2)OCO3)on1 (centres unmarked) [Compound 437]	> 45
Cc1cnoc1C1CCCN1C(=O)c1cc(-c2ccc3c(c2)OCO3)on1 (centres unmarked) [Compound 439]	> 45
O=C(c1cc(-c2ccc3ncnn3c2)on1)N1CCC[C@H]1c1ccccc1 [Compound 441]	> 45

Target: human SCD1 (Homo sapiens (Human), UniProt O00767)
Sequence (O00767 whole entry): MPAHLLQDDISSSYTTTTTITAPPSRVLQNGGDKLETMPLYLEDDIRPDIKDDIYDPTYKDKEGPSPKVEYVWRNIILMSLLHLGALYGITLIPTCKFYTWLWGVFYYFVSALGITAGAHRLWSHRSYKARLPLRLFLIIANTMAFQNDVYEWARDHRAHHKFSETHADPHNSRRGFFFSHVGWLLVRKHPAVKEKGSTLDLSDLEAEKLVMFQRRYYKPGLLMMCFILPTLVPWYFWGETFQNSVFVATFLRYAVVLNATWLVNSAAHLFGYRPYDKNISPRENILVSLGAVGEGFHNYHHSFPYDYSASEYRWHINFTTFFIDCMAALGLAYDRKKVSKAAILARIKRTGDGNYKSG
Experiment: Yeast growth assay, strain expressing human SCD1 as the sole desaturase (reduced growth as surrogate for SCD inhibition)
Assay type: cell-based
Conditions: yeast with OLE1 deleted expressing human SCD1 from a plasmid; growth read as OD600 after 40 h at 30° C.; top drug concentration 33.3 μM
Outline: as §1

SMILES	IC50 [µM]
COc1ccc(-c2cc(C(=O)N3CCCC3c3ccc(OC)cc3)no2)cc1 (centres unmarked) [Compound 376]	> 45
COc1ccc(C2CCCN2C(=O)c2cc(-c3ccccc3)on2)cc1 (centres unmarked) [Compound 377]	> 45
COc1ccc(C2CCCN2C(=O)c2cc(-c3ccc(F)c(F)c3)on2)cc1 (centres unmarked) [Compound 378]	> 45
COc1ccc(C2CCCN2C(=O)c2cc(-c3ccc(C(F)(F)F)cc3)on2)cc1 (centres unmarked) [Compound 381]	> 45
COc1ccc(C2CCCN2C(=O)c2cc(-c3ccc(OC)c(F)c3)on2)cc1 (centres unmarked) [Compound 382]	43.5
O=C(c1cc(CC2CC2)on1)N1CCCC1c1ccccc1 (centres unmarked) [Compound 384]	30
O=C(c1cc(-c2ccc3c(c2)OCO3)on1)N1CCCC1c1cccnn1 (centres unmarked) [Compound 391]	> 45
COc1ccc(C2CCCN2C(=O)c2cc(-c3ccc(C(F)(F)C(F)(F)F)cc3)on2)cc1 (centres unmarked) [Compound 392]	> 45
N#Cc1ccccc1C1CCCN1C(=O)c1cc(-c2ccc3c(c2)OCO3)on1 (centres unmarked) [Compound 398]	> 45
COc1ccc(C2CCCN2C(=O)c2cc(-c3ccc4nc(N(C)C)oc4c3)on2)cc1 (centres unmarked) [Compound 399]	15
COc1ccc(C2CCCN2C(=O)c2cc(-c3ccc4ocnc4c3)on2)cc1 (centres unmarked) [Compound 400]	> 45
COc1ccc(C2CCCN2C(=O)c2cc(-c3ccc4ncoc4c3)on2)cc1 (centres unmarked) [Compound 401]	> 45
N#Cc1ccc(-c2cc(C(=O)N3CCC[C@H]3c3ccccc3)no2)cc1 [Compound 404]	> 45
O=C(c1cc(-c2cccnc2)on1)N1CCC[C@H]1c1ccccc1 [Compound 405]	33.3
O=C(c1cc(-c2ccc3c(c2)OCO3)on1)N1COCC1c1ccccc1 (centres unmarked) [Compound 406]	> 45
O=C(c1cc(-c2ccncc2)on1)N1CCC[C@H]1c1ccccc1 [Compound 409]	23
COc1cc(C2CCCN2C(=O)c2cc(-c3ccc4c(c3)OCO4)on2)on1 (centres unmarked) [Compound 411]	30

SMILES	IC50 [µM]
O=C(c1cc(-c2ccc3c(c2)OCO3)on1)N1CC(O)C[C@H]1c1ccccc1 (some centres unmarked) [Compound 414]	30
Cn1nccc1C1CCCN1C(=O)c1cc(-c2ccc3c(c2)OCO3)on1 (centres unmarked) [Compound 417]	> 45
O=C(c1cc(-c2ccc3c(c2)OCO3)on1)N1CCCC1c1cnccn1 (centres unmarked) [Compound 418]	> 45
O=C(c1cc(-c2ccc3c(c2)OCO3)on1)N1C[C@@H](O)C[C@H]1c1ccccc1 [Compound 421]	> 45
O=C(c1cc(-c2ccc3c(c2)OCO3)on1)N1C[C@H](O)C[C@H]1c1ccccc1 [Compound 422]	> 45
CN1CCC(C2CCCN2C(=O)c2cc(-c3ccc4c(c3)OCO4)on2)CC1 (centres unmarked) [Compound 424]	> 45
Cn1ncc2cccc(C3CCCN3C(=O)c3cc(-c4ccc5c(c4)OCO5)on3)c21 (centres unmarked) [Compound 425]	> 45
Cn1ccc(-c2cc(C(=O)N3CCC[C@H]3c3ccccc3)no2)cc1=O [Compound 428]	29.4
COc1cc(F)ccc1C1CCCN1C(=O)c1cc(-c2ccc3c(c2)OCO3)on1 (centres unmarked) [Compound 430]	> 45
O=C(c1cc(-c2ccc3c(c2)OCO3)on1)N1CCCC1c1ncccn1 (centres unmarked) [Compound 431]	> 45
O=C(c1cc(-c2ccn3ncnc3c2)on1)N1CCC[C@H]1c1ccccc1 [Compound 432]	40
O=C(c1cc(-c2ccnnc2)on1)N1CCC[C@H]1c1ccccc1 [Compound 433]	36.8
O=C(c1cc(-c2ccc3c(c2)OCO3)on1)N1CCCC1Cc1ccccc1 (centres unmarked) [Compound 434]	> 45
O=C(c1cc(-c2ccccc2)on1)N1CCCC1Cc1ccccc1 (centres unmarked) [Compound 436]	> 45
COc1cccnc1C1CCCN1C(=O)c1cc(-c2ccc3c(c2)OCO3)on1 (centres unmarked) [Compound 437]	> 45
Cc1cnoc1C1CCCN1C(=O)c1cc(-c2ccc3c(c2)OCO3)on1 (centres unmarked) [Compound 439]	> 45
O=C(c1cc(-c2ccc3ncnn3c2)on1)N1CCC[C@H]1c1ccccc1 [Compound 441]	32.4
